US20160038474A1, “COMPOSITIONS AND METHODS FOR THE MODULATION OF HEMOGLOBIN (S)” (GLOBAL BLOOD THERAPEUTICS, INC., priority 2013, published 2016)

Key:
[1] = test system: sickle cell disease patient whole blood (ssRBCs); assay: Viscosity assay, hypoxic sickle cell blood; assay type: cell-based, human; settings: [Hb] 1.5 mM, two hours of hypoxia
Method: Sickle cell disease patients develop anemia as a means for the circulatory system to compensate for increase in blood viscosity caused by the non-deformable sickle cell red blood cells (ssRBCs). The effects of 5-HMF, compound 5, compound 9, or compound 12 were tested on sickle cell disease patient blood rheology to determine if these compounds decrease the viscosity of ssRBCs that have undergone hypoxia. Using blood from patients with sickle cell disease, whole blood (30% hematocrit, ˜1.5 mM Hb) was incubated with 5-HMF, compound 5, compound 9, or compound 12 during exposure to two hours of hypoxia (2.4% 02). A cone-plate viscometer was used to measure the viscosity at shear rates ranging from 60 s^−1 to 415 s^−1.

[2] = target: T1, whole blood from homozygous sickle cell patients, Hb(S) (Homo sapiens, UniProt P68871+P69905, E7V); assay: Reverse Hemox assay (oxygen equilibrium curves), whole blood; assay type: cell-based; settings: for Whole Blood OEC (delta p50%): [Hb] 1 mM
T1 construct: Oxygen Equilibrium Curves (OEC) of whole blood before and after treatment; from tissue; host or cells: whole blood (or washed red blood cells) of homozygous sickle cell patients
Method: (§1) Oxygen Equilibrium Curves (OEC) of whole blood before and after treatment with different concentrations of compounds 12, 22 and 23 were performed as follows using a HEMOX analyzer (TCS Scientific, New Hope, Pa.). Blood samples from homozygous sickle cell patients were obtained though the Hemoglobinopathy Center at Children's Hospital Oakland Research Institute (CHORI) with Institutional Review Board approval. The hematocrit was adjusted to 20% using autologous plasma and the blood samples were incubated for 1 hour at 37° C. in absence or presence of compounds. 100 μl of these samples were added to 5 mL of Hemox butter (30 mM TES, 130 mM NaCl, 5 mM KCl, pH=7.4) at 37° C. and then transferred to the Hemox sample chamber. The samples were saturated with oxygen by flushing with compressed air for 10 minutes. The samples were then flushed with pure nitrogen and the respective absorbances of oxy- and deoxy-Hb are recorded as a function of the solution pO2. The oxygen equilibrium data were then fitted to the Hill Model to obtain values for p50. The deoxygenation curves for both whole blood alone (control) and whole blood in the presence of the compound were collected with the TCS software.
Results: Table 3 below lists the delta p50% values where “+” indicates a delta p50% of between 0 and 29, “++” indicates a delta p50% of between 30 and 50, and “+++” indicates a delta p50% of 50 or greater.
(§2) Reverse hemox assay was performed essentially as described in Example 2, above, using either washed red blood cells or whole blood.

[3] = test system: washed red blood cells; assay: Reverse Hemox assay (OEC), washed red blood cells; assay type: cell-based, human; settings: [Hb] 1 mM; [cmp] 1 mM
Method: as §1, §2
Results: Table 4, below, indicates the percent change in p50 (delta p50%) for each compound tested. In the washed red blood cells (RBCs), 5-HMF, compound 5, and compound 12 (1 mM compound) gave p50 of 20, 9 and 7 mm Hg, respectively, compared to the control red blood cells (delta p50=30 mm Hg). To determine the effects of plasma proteins on compound activity. OECs were measured in whole blood from sickle cell disease patients. 5-HMF, compound 5, compound 9, and compound 12 gave p50 of 27, 18, 11 and 6 mm Hg, respectively, compared to the control blood p50 of 30 mm Hg.

[4] = target: T2, HbS (Homo sapiens, UniProt P68871+P69905, E7V); assay: 96-well oxygen dissociation assay (ODA); assay type: biochemical
Excerpt: Results: Table 4 below lists the change in oxygen affinity (Δoxy state). After two hours of passive deoxygenation, compound 12, at an equimolar concentration to Hb, increased the Hb oxygen affinity by 6-fold.

[5] = target: T2, HbS; assay: 96-well oxygen dissociation assay (ODA); assay type: biochemical; settings: [Hb] 3 μM; [cmp] 1 μM
[6] = Pharmacokinetics after single dose of GBT440 (FIG. 1), dog; assay type: in vivo
Excerpt: (§3) FIG. 1 graphically illustrates the high oral bioavailability, sustained exposure and dramatic RBC partitioning following single dose of GBT440. Certain relevant pharmacokinetic parameters are tabulated below:
(§4) FIG. 1 in parts A, B, and C graphically illustrates the high in vivo oral bioavailability, sustained exposure and the high RBC partitioning following single dose of GBT440.

[7] = Pharmacokinetics after single dose of GBT440 (FIG. 1), rat; assay type: in vivo
Excerpt: as §3, §4

[8] = Pharmacokinetics after single dose of GBT440 (FIG. 1), monkey; assay type: in vivo
Excerpt: as §3, §4

Structure (SMILES)	Viscosity (ΔcP) ([1]; [cmp] 1.6 mM) [cP]	Viscosity (ΔcP) ([1]; [cmp] 8 mM) [cP]	Whole Blood OEC (delta p50%) ([2]; [cmp] 1 mM) [%]	Whole Blood OEC (delta p50%) ([2]; [cmp] 3 mM) [%]	p50 ([2]; whole blood from sickle cell disease patients, control blood p50 30 mm Hg) [mm Hg]	Washed RBC OEC (delta p50%) [3] [%]	potency at increasing the oxygen affinity of HbS compared with 5-HMF ([4]; 96-well ODA)	Hb in ODA (Δoxy state) ([4]; [Hb] 3 μM, [cmp] 3 μM)	Hb in ODA (Δoxy state) [5]	bioavailability ([6]; in vivo, IV 1 mg/kg, PO 2.5 mg/kg, read-out: Oral bioavailability (% F)) [%]	blood plasma ratio ([6]; whole blood and plasma)	bioavailability ([7]; in vivo, IV 1.6 mg/kg, PO 7.2 mg/kg, read-out: Oral bioavailability (% F)) [%]	blood plasma ratio ([7]; whole blood and plasma)	bioavailability ([8]; in vivo, IV 1 mg/kg, PO 4.25 mg/kg, read-out: Oral bioavailability (% F)) [%]	blood plasma ratio ([8]; whole blood and plasma)
COc1cc(C=O)c(OCc2cccnc2-c2ccnn2C(C)C)cn1 [Compound 9, 2-methoxy-5-[[2-(2-propan-2-ylpyrazol-3-yl)pyridin-3-yl]methoxy]pyridine-4-carbaldehyde]	2.3	>2.4	63	>80	11	69	more potent at increasing the oxygen affinity of HbS than 5-hydroxy furfural	23	6	–	–	–	–	–	–
CC(C)n1nccc1-c1ncccc1COc1cccc(O)c1C=O [GBT440]	–	–	–	–	–	–	–	–	–	36.6	74.4	59.8	69	36.1	70.9
